According to article PMC10165934 (Emerging Microbes & Infections, 2023):
Like-named read-outs stand apart in the source and are kept apart here.

Columns and labels:
SARS-CoV-2 NSP14 MTase [1] = biological target: T1, SARS-CoV-2 NSP14 MTase (Severe acute respiratory syndrome coronavirus 2, UniProt P0DTD1); conditions: read-out: anti-MTase IC50; ref 39 (Kasprzyk et al.); cited from earlier work
SARS-CoV-2 [2] = conditions: read-out: antiviral EC50; ref 39 (Kasprzyk et al.); cited from earlier work
SARS-CoV-2 [3] = conditions: read-out: antiviral EC50; ref 37 (Basu et al.); cited from earlier work
[4] = biological target: SARS-CoV-2 NSP16 2’-O MTase (Severe acute respiratory syndrome coronavirus 2, UniProt P0DTD1); assay: FP-based FL-NAH displacement assay, NSP16; format: binding; conditions: NSP16 0.5 µM, 96-well plate
NS5 MTase of ZIKV = biological target: T2, NS5 MTase of ZIKV (Zika virus, UniProt Q32ZE1); assay: FP-based FL-NAH displacement assay, ZIKV NS5; format: binding; conditions: ZIKV NS5 2.5 µM, 96-well plate
T2 sequence (Q32ZE1 2517-2790): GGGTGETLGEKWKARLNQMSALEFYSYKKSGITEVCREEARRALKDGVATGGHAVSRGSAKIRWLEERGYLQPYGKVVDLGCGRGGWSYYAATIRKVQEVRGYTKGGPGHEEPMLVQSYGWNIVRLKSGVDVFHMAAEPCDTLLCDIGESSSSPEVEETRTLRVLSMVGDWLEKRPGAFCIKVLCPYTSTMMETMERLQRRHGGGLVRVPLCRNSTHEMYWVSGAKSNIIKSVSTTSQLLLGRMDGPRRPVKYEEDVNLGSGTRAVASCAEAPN

SARS-CoV-2 NSP14 MTase [5] = biological target: T1, SARS-CoV-2 NSP14 MTase; assay: FP-based FL-NAH displacement assay; format: binding
SARS-CoV-2 NSP14 MTase [6] = biological target: T1, SARS-CoV-2 NSP14 MTase; conditions: read-out: anti-MTase IC50; ref 37 (Basu et al.); cited from earlier work
SARS-CoV-2 WA strain = assay: Checkerboard combination assay; format: cell-based; conditions: Vero E6 cells

For Cc1cc(-c2ccc(/N=N/c3ccc4c(S(=O)(=O)O)cc(S(=O)(=O)O)c(N)c4c3O)c(C)c2)ccc1/N=N/c1ccc2c(S(=O)(=O)O)cc(S(=O)(=O)O)c(N)c2c1O [Evans Blue], the IC50 (SARS-CoV-2 NSP14 MTase [1]) is listed as 4.9 µM and the EC50 (SARS-CoV-2 [2]) is listed as 31 µM.

In the case of N#Cc1ccc(N2N=C3c4ccc(C(=O)O)cc4CC[C@@H]3[C@@H]2C2CCCC2)cc1Cl [PF-03882845], the EC50 (SARS-CoV-2 [3]) is given as 11 µM.

For NCCOc1cc(C(=O)Nc2cc(OCCN)c3ccccc3n2)nc(C(=O)Nc2cc(OCCN)c3ccccc3n2)c1 [Pyridostatin], the IC50 (SARS-CoV-2 NSP14 MTase [1]) is listed as 4.1 µM and the EC50 (SARS-CoV-2 [2]) is listed as 3.6 µM.

In the case of Nc1c(S(=O)(=O)O)cc(Nc2ccc(Nc3nc(Cl)nc(Nc4cccc(S(=O)(=O)O)c4)n3)c(S(=O)(=O)O)c2)c2c1C(=O)c1ccccc1C2=O [Reactive blue 2], the EC50 (SARS-CoV-2 [2]) is given as 16.3 µM.

With Nc1ncnc2c1ncn2[C@@H]1O[C@H](CSCC[C@H](N)C(=O)O)[C@@H](O)[C@H]1O [SAH, S-adenosyl-L-homocysteine] the “quenching of FP from FL-NAH binding to NSP16” value [4] was “quenched” and the “quenching of FP from FL-NAH binding to the ZIKV NS5 MTase” value (NS5 MTase of ZIKV) was “quenched”.

With C[S+](CC[C@H](N)C(=O)[O-])C[C@H]1O[C@@H](n2cnc3c(N)ncnc32)[C@H](O)[C@@H]1O (some centres unmarked) [SAM, S-adenosylmethionine] the IC50 (SARS-CoV-2 NSP14 MTase [5]) was 25 µM, the “quenching of FP from FL-NAH binding to NSP16” value [4] was “quenched” and the “quenching of FP from FL-NAH binding to the ZIKV NS5 MTase” value (NS5 MTase of ZIKV) was “quenched”.

For O=C(CCCN1CCC(O)(c2cccc(C(F)(F)F)c2)CC1)c1ccc(F)cc1 [Trifluperidol], the IC50 (SARS-CoV-2 NSP14 MTase [6]) is listed as 23 µM and the EC50 (SARS-CoV-2 [3]) is listed as 59.8 µM.

With CC(C)(C)[C@H](NC(=O)C(F)(F)F)C(=O)N1C[C@H]2[C@@H]([C@H]1C(=O)N[C@H](C#N)C[C@@H]1CCNC1=O)C2(C)C [nirmatrelvir] the “EC50 shift in the presence of NSC111552 (1.67 µM)” value (SARS-CoV-2 WA strain) was roughly 1.8 fold.

For CCC(CC)COC(=O)[C@H](C)N[P@](=O)(OC[C@H]1O[C@@](C#N)(c2ccc3c(N)ncnn23)[C@H](O)[C@@H]1O)Oc1ccccc1 [remdesivir], the “EC50 decrease in the presence of NSC111552 ([…])” value (SARS-CoV-2 WA strain) was “about 2.4 fold”.

In the case of Inauhzin, the IC50 (SARS-CoV-2 NSP14 MTase [6]) is listed as 12.9 µM and the EC50 (SARS-CoV-2 [3]) is listed as 13 µM.
